Laboratory results taken from the supplement of paper PMC10307832.

Assays:
Assay in all cases: relative viability (nuclei count vs DMSO), 5 days (fraction); higher = more cells survive
201T = tested on: 201T
Method in brief: (§1)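 One day after seeding in 1536-well plates, lung cancer cell lines were dosed by pin tool. Dosing was either single-drug or a fixed anchor-drug dose plus five library-drug doses (not always all listed) in √10 steps. After 5 days, nuclei were stained in one fix-and-stain step and counted on 4× images, and relative viability is the nuclei count of treated wells over that of vehicle wells, given as the median of duplicate plates.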

BEN = tested on: BEN
Method in brief: as §1

EMC-BAC-2 = tested on: EMC-BAC-2
Method in brief: as §1

HARA = tested on: HARA
Method in brief: as §1

HCC-44 = tested on: HCC-44
Method in brief: as §1

LCLC-103H = tested on: LCLC-103H
Method in brief: as §1

LOU-NH91 = tested on: LOU-NH91
Method in brief: as §1

NCI-H1395 = tested on: NCI-H1395
Method in brief: as §1

NCI-H1993 = tested on: NCI-H1993
Method in brief: as §1

NCI-H2023 = tested on: NCI-H2023
Method in brief: as §1

NCI-H2087 = tested on: NCI-H2087
Method in brief: as §1

NCI-H2126 = tested on: NCI-H2126
Method in brief: as §1

NCI-H2347 = tested on: NCI-H2347
Method in brief: as §1

NCI-H23 = tested on: NCI-H23
Method in brief: as §1

NCI-H3122 = tested on: NCI-H3122
Method in brief: as §1

NCI-H441 = tested on: NCI-H441
Method in brief: as §1

NCI-H596 = tested on: NCI-H596
Method in brief: as §1

NCI-H647 = tested on: NCI-H647
Method in brief: as §1

NCI-H650 = tested on: NCI-H650
Method in brief: as §1

NCI-H727 = tested on: NCI-H727
Method in brief: as §1

NCI-H838 = tested on: NCI-H838
Method in brief: as §1

`Cc1sc2c(c1C)C(c1ccc(Cl)cc1)=N[C@@H](CC(=O)OC(C)(C)C)c1nnc(C)n1-2` [JQ1] + C[C@]1(O)C[C@@H](c2nc(-c3ccc4ccc(-c5ccccc5)nc4c3)c3c(N)nccn32)C1 [Linsitinib] (partner 1 µM) showed a relative viability (201T; first compound 0.04 µM) of 0.996, a relative viability (201T; first compound 0.1265 µM) of 1.08 and a relative viability (201T; first compound 0.4 µM) of 0.924. The relative viability (201T; first compound 1.265 µM) was 0.607, the relative viability (201T; first compound 4 µM) was 0.511 and the relative viability (BEN; first compound 0.04 µM) was 0.886. The relative viability (BEN; first compound 0.1265 µM) was 0.742, the relative viability (BEN; first compound 0.4 µM) was 0.524 and the relative viability (BEN; first compound 1.265 µM) was 0.347. It also gave a relative viability (BEN; first compound 4 µM) of 0.224, a relative viability (EMC-BAC-2; first compound 0.04 µM) of 0.815 and a relative viability (EMC-BAC-2; first compound 0.1265 µM) of 0.812. For the same compound, the relative viability (EMC-BAC-2; first compound 0.4 µM) was 0.659, the relative viability (EMC-BAC-2; first compound 1.265 µM) was 0.444 and the relative viability (EMC-BAC-2; first compound 4 µM) was 0.47. The relative viability (HARA; first compound 0.04 µM) was 0.902, the relative viability (HARA; first compound 0.1265 µM) was 0.624 and the relative viability (HARA; first compound 0.4 µM) was 0.399. It also gave a relative viability (HARA; first compound 1.265 µM) of 0.205, a relative viability (HARA; first compound 4 µM) of 0.163 and a relative viability (HCC-44; first compound 0.04 µM) of 0.704. It also gave a relative viability (HCC-44; first compound 0.1265 µM) of 0.448, a relative viability (HCC-44; first compound 0.4 µM) of 0.32 and a relative viability (HCC-44; first compound 1.265 µM) of 0.31. For the same compound, the relative viability (HCC-44; first compound 4 µM) was 0.283, the relative viability (LCLC-103H; first compound 0.04 µM) was 1.01 and the relative viability (LCLC-103H; first compound 0.1265 µM) was 0.751. For the same compound, the relative viability (LCLC-103H; first compound 0.4 µM) was 0.805, the relative viability (LCLC-103H; first compound 1.265 µM) was 0.608 and the relative viability (LCLC-103H; first compound 4 µM) was 0.456. For the same compound, the relative viability (LOU-NH91; first compound 0.04 µM) was 0.905, the relative viability (LOU-NH91; first compound 0.1265 µM) was 0.777 and the relative viability (LOU-NH91; first compound 0.4 µM) was 0.579. The relative viability (LOU-NH91; first compound 1.265 µM) was 0.474, the relative viability (LOU-NH91; first compound 4 µM) was 0.489 and the relative viability (NCI-H1395; first compound 0.04 µM) was 0.983. For the same compound, the relative viability (NCI-H1395; first compound 0.1265 µM) was 0.797, the relative viability (NCI-H1395; first compound 0.4 µM) was 0.788 and the relative viability (NCI-H1395; first compound 1.265 µM) was 0.562. For the same compound, the relative viability (NCI-H1395; first compound 4 µM) was 0.486, the relative viability (NCI-H1993; first compound 0.04 µM) was 0.729 and the relative viability (NCI-H1993; first compound 0.1265 µM) was 0.855. The relative viability (NCI-H1993; first compound 0.4 µM) was 0.809, the relative viability (NCI-H1993; first compound 1.265 µM) was 0.829 and the relative viability (NCI-H1993; first compound 4 µM) was 0.736. The relative viability (NCI-H2023; first compound 0.04 µM) was 0.653, the relative viability (NCI-H2023; first compound 0.1265 µM) was 0.576 and the relative viability (NCI-H2023; first compound 0.4 µM) was 0.379. The relative viability (NCI-H2023; first compound 1.265 µM) was 0.207, the relative viability (NCI-H2023; first compound 4 µM) was 0.157 and the relative viability (NCI-H2087; first compound 0.04 µM) was 1.02. The relative viability (NCI-H2087; first compound 0.4 µM) was 0.69, the relative viability (NCI-H2087; first compound 1.265 µM) was 0.456 and the relative viability (NCI-H2087; first compound 4 µM) was 0.508. For the same compound, the relative viability (NCI-H2126; first compound 0.04 µM) was 0.725, the relative viability (NCI-H2126; first compound 0.1265 µM) was 1.52 and the relative viability (NCI-H2126; first compound 0.4 µM) was 0.651. It also gave a relative viability (NCI-H2126; first compound 1.265 µM) of 0.559, a relative viability (NCI-H2126; first compound 4 µM) of 0.432 and a relative viability (NCI-H2347; first compound 0.04 µM) of 0.934. The relative viability (NCI-H2347; first compound 0.1265 µM) was 0.747, the relative viability (NCI-H2347; first compound 0.4 µM) was 0.743 and the relative viability (NCI-H2347; first compound 1.265 µM) was 0.632. For the same compound, the relative viability (NCI-H2347; first compound 4 µM) was 0.45, the relative viability (NCI-H23; first compound 0.04 µM) was 0.513 and the relative viability (NCI-H23; first compound 0.1265 µM) was 0.555. The relative viability (NCI-H23; first compound 0.4 µM) was 0.385, the relative viability (NCI-H23; first compound 1.265 µM) was 0.339 and the relative viability (NCI-H23; first compound 4 µM) was 0.288. The relative viability (NCI-H3122; first compound 0.04 µM) was 0.966, the relative viability (NCI-H3122; first compound 0.1265 µM) was 0.931 and the relative viability (NCI-H3122; first compound 0.4 µM) was 0.97. It also gave a relative viability (NCI-H3122; first compound 1.265 µM) of 0.757, a relative viability (NCI-H3122; first compound 4 µM) of 0.625 and a relative viability (NCI-H441; first compound 0.04 µM) of 0.774. For the same compound, the relative viability (NCI-H441; first compound 0.1265 µM) was 0.484, the relative viability (NCI-H441; first compound 0.4 µM) was 0.579 and the relative viability (NCI-H441; first compound 1.265 µM) was 0.386. The relative viability (NCI-H441; first compound 4 µM) was 0.306, the relative viability (NCI-H596; first compound 0.04 µM) was 1.22 and the relative viability (NCI-H596; first compound 0.1265 µM) was 1.03. For the same compound, the relative viability (NCI-H596; first compound 0.4 µM) was 0.587, the relative viability (NCI-H596; first compound 1.265 µM) was 0.418 and the relative viability (NCI-H596; first compound 4 µM) was 0.361. It also gave a relative viability (NCI-H647; first compound 0.04 µM) of 1.12, a relative viability (NCI-H647; first compound 0.1265 µM) of 0.754 and a relative viability (NCI-H647; first compound 0.4 µM) of 0.568. For the same compound, the relative viability (NCI-H647; first compound 1.265 µM) was 0.151, the relative viability (NCI-H647; first compound 4 µM) was 0.16 and the relative viability (NCI-H650; first compound 0.04 µM) was 0.913. For the same compound, the relative viability (NCI-H650; first compound 0.1265 µM) was 0.507, the relative viability (NCI-H650; first compound 0.4 µM) was 0.503 and the relative viability (NCI-H650; first compound 1.265 µM) was 0.291. For the same compound, the relative viability (NCI-H650; first compound 4 µM) was 0.26, the relative viability (NCI-H727; first compound 0.04 µM) was 0.374 and the relative viability (NCI-H727; first compound 0.1265 µM) was 0.313. The relative viability (NCI-H727; first compound 0.4 µM) was 0.343, the relative viability (NCI-H727; first compound 1.265 µM) was 0.244 and the relative viability (NCI-H727; first compound 4 µM) was 0.234. For the same compound, the relative viability (NCI-H838; first compound 0.04 µM) was 0.954, the relative viability (NCI-H838; first compound 0.1265 µM) was 0.543 and the relative viability (NCI-H838; first compound 0.4 µM) was 0.74. For the same compound, the relative viability (NCI-H838; first compound 1.265 µM) was 0.307 and the relative viability (NCI-H838; first compound 4 µM) was 0.229.
